Experimental data: US9522124B2, “Methods for treating Alzheimer's disease” (Wisconsin Alumni Research Foundation, priority 2011, dated 2016)

Columns and labels:
[1] = test system: Aβ; assay: ELISA determination of secreted Aβ in conditioned media of H4 cells; assay type: cell-based, human; conditions: 10 μM, 48 hours
Method: For Aβ determinations in the conditioned media, H4 cells were plated in 6-well Petri dishes. When 80-90% confluent, cells were washed in PBS and incubated in 1 ml of fresh medium for 48 hr. Secreted Aβ was determined by standard sandwich ELISA as described before (Costantini et al., 2007; Costantini et al., 2006; Jonas et al., 2008; Jonas et al., 2010; Ko and Puglielli, 2009; Pehar et al., 2010). For each sample, the levels of Aβ40, Aβ42, and Aβtotal were quantified as triplicate based upon standard curves run (on every ELISA plate) and then expressed as pmol Aβ/mg of protein. Aβ42 was constantly found to be ˜25% of total Aβ values.

[2] = test system: C99; assay: Western blot assessment of C99 levels in H4 cell lysates; assay type: cell-based, human; conditions: H4 cells, 48 hours
Method: FIG. 7. Compound 9 and 19 decrease levels and activity of BACE1. H4 cells were treated with either compound 9 or 19 for 48 hours prior to Western blot assessment of BACE1 and C99 levels in cell lysates. C99 is the immediate product of BACE1-mediated cleavage of APP.
(§1) Western blotting was performed on a 4-12% Bis-Tris SDS-PAGE system (NuPAGE; Invitrogen, Carlsbad, Calif., USA) as described previously (Costantini et al., 2006; Jonas et al., 2008; Jonas et al., 2010; Ko and Puglielli, 2007; Ko and Puglielli, 2009; Pehar et al., 2010). The following antibodies were used in this study: anti-acetylated lysine (monoclonal; cat. no. ab409; Abcam, Cambridge, Mass., USA); anti-BACE1 (polyclonal; cat. no. ab2077; Abcam); anti-Myc (monoclonal; cat. no. sc-40; santa cruz, Santa Cruz, Calif., USA); anti-ATases/NAT8 (polyclonal; cat. no. AP4957c; Abgent, San Diego, Calif., USA); anti-actin (monoclonal; cat. no. A1978; Sigma, St Louis, Mo., USA); anti-C99 (monoclonal; cat. no. M066-3; MBL, Woburn, Mass., USA); anti-acetylated H3 (polyclonal; cat. no. 06-599, Millipore, Billerica, Mass.); anti-acetylated H4 (polyclonal; cat. no. 06-866, Millipore, Billerica, Mass.); anti-αPCNA (polyclonal; cat. no. AP2835b, Abgent, San Diego, Calif., USA).

[3] = test system: ATase1 and ATase2; assay: Western blot assessment of endogenous ATase1/ATase2 levels in H4 cells; assay type: cell-based, human; conditions: 48 hours
Method: FIG. 4. Compound 9 causes degradation of the ATases. (A) H4 cells were treated with the indicated compounds (10 μM) for 48 hours prior to Western blot assessment of BACE1 and ATase1/ATase2 levels in total cell lysates. (B, D and E) Quantification of changes are expressed as percent of control (no treatment) and are the average (n=3)±S.D.*, P<0.05; **, P<0.005; ^#, P<0.0005. (C) ELISA determination of secreted Aβ in the conditioned media of the experiment described in (A). Results are expressed as percent of control (no treatment) and are the average (n=3)±S.D.*, P<0.05; **, P<0.005. (F) CHO cells over-expressing either ATase1 or ATase2 were treated with compound 9 (10 μM) for 48 hours prior to Western blot assessment of ATase1 and ATase2 levels in total cell lysates.
FIG. 13. Compound 9 decreases the levels of both ATase1 and ATase2. (A) H4 cells were treated with the increasing concentrations of compound 9 for 48 hours prior to Western blot assessment of BACE1 and ATase1/ATase2 levels in total cell lysates. (B-D) Quantification of changes are expressed as percent of control (no treatment) and are the average (n=3)±S.D.*, P<0.05; **, P<0.005; ^#, P<0.0005.
as §1, with “AP2835b, Abgent, San Diego, Calif., USA).” left out

[4] = target: T1, ATase1 (Homo sapiens, UniProt Q9UHF3); assay: AcetylCoA:lysine acetyltransferase assay (fluorescent, affinity purified ATase1-myc); assay type: biochemical
T1 construct: myc (C); made in house
T1 sequence (Q9UHF3 1-227): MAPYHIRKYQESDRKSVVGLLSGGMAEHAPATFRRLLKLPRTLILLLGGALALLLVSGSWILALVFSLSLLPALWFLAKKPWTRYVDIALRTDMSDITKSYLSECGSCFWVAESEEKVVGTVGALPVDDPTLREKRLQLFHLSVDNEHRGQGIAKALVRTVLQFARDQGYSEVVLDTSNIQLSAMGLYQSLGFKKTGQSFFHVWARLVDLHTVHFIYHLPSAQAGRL
Method: The acetyl:CoA lysine acetyltransferase activity of ATase1 and ATase2 was assayed as described before (Ko and Puglielli, 2009). Briefly, we adapted a commercially available fluorescent kit (cat. no. 10006515, Cayman Chemicals) as follows: as source of the enzymatic activity, we used affinity purified ATase1-myc and ATase2-myc at the final concentration of 300 ng/μl; as donor of the acetyl group, we used acetyl-CoA at the final concentration of 12.5 μM. […] The acetyltransferase assay was performed as recommended by the manufacturer.
For kinetic analysis of ATase1 and ATase2 inhibition, the assays were performed in the presence of the indicated concentrations of compound 9, 19 and 9.I. The concentration of acetyl-CoA was varied from […]. Values were plotted as a Lineweaver-Burk plot using Graphpad Prism software.
We previously described a fluorescent assay that is able to assess the acetylCoA:lysine acetyltransferase activity of ATase1 and ATase2 in vitro (Ko and Puglielli, 2009). The assay employs affinity purified ATase1 or ATase2 (as enzymes), acetyl-CoA (as donor of the acetyl group) and a recombinant peptide corresponding to the N-terminal tail of the histone protein H3 (as acceptor of the acetyl group). The H3 peptide was preferred to affinity purified BACE1 because it is acetylated in a conformation independent manner ((Ko and Puglielli, 2009) and data not shown) and, therefore, more suitable for large screening approaches. To identify possible ATase1 and ATase2 inhibitors we used the assay to screen a single library of 14,400 small molecules/compounds. The screen identified 186 small molecules/compounds able to inhibit ATase1, ATase2 or both in vitro. […] Each compound was then screened for cytotoxic properties by using multi-plex cytotoxicity assays on a variety of cell lines, including human neuroblastoma and human neuroglioma. […] The above 30 compounds were individually screened on human neuroglioma (H4) cells for their ability to reduce the levels of BACE1 and the generation of Aβ. Two compounds, 9 and 19, produced significant changes and were object of further study.

IC50 [4]: ~3.9 µM
kinetics of inhibition for acetyl-CoA, ATase1 ([4]; Lineweaver-Burk plot, acetyl-CoA varied): competitive inhibition
SMILES: O=c1c(Cl)c2oc3ccccc3nc-2c2ccccc12 [Compound 9]
levels of Aβ in the conditioned media / generation of Aβ [1]: decreased levels of Aβ
cellular levels of C99 [2]: decreased cellular levels of C99
endogenous levels of ATase1 and ATase2 ([3]; 10 μM): significantly down-regulate
levels of the ATases with increasing concentrations ([3]; increasing concentrations): dose-dependent decrease
